Assay results as given in patent US11952610B2, “Digital microbiology” (priority 2016, dated 2024).
≈ marks a conversion by molar mass, not a printed value. Read-outs that look alike come from different tables or passages of the source.

Tests used:
[1] = tested on: Fusarium graminearum DSM 1096; assay type: cell-based; conditions: 100 mg/L in the oil phase, YCG broth, 48 hours
[2] = tested on: Mucor racemosus CECT 20821; test: Inhibition of mold growth outside the droplet aqueous phase, antifungal in oil phase; assay type: cell-based; conditions: YCG broth, 48 hours
Procedure: (§1) Usual foodborne mold strains were grown until the sporulation state (usually for 5 to 7 days) on the appropriate culture medium at 28° C. Spores were then scraped into 0.05% Tween 80 sterile solution. The collected suspensions were filtered on several layers of gauze compressed to eliminate most of the hyphae and mycelium fragments. When necessary, the suspensions were kept under stirring in the dark and at room temperature before the filtration step to ensure optimal spore release from the fungal structures. The spore concentration was determined in a hemocytometer chamber and/or by plating on agar Petri plates.
(§2) The suspensions were then centrifuged for 5 minutes at 10.000 rpm and the supernatants discarded. The pellets were resuspended with the appropriate volume of YGC broth containing 30% of glycerol and the aliquots were stored at −20° C. for up to 6 months.
(§3) Aliquots were thawed at room temperature and washed once in YGC broth to remove glycerol. The spores were then diluted to the concentration of 10^5 spores/mL in YGC broth containing 5% of Pluronic F68 surfactant.
(§4) Dicloran stock solution was prepared at 40 mg/mL in acetone. The stock solution was then diluted to produce working solutions according to table below.
(§5) A volume of 10 μL of the appropriate working solution was then added to 2 mL of Oil for Eva Green to reach the targeted final concentrations (0.5% v/v) (see the table below).
(§6) For droplet generation using the QX200™ Droplet generator, the ‘sample’ and ‘oil’ wells of a DG8 cartridge were respectively filled with […], of the prepared spore suspension (with or without CFDA) and 70 μL of the Oil for Eva Green (with or without Dicloran). After the generation process, the droplet emulsions (30-35 μL/well) were transferred to a 96-well Eppendorf plate and placed at 28° C. for 24 to 48 hours.

[3] = tested on: Erotium rubrum CECT 20807; test: as above; assay type: cell-based
Procedure: as §1, §2, §3, §4, §5, §6

[4] = tested on: usual foodborne mold strains; test: as above; assay type: cell-based; conditions: 40 to 100 mg/L in the oil for EvaGreen, 28° C., 24 to 48 hours
Procedure: as §1, §2, §3, §4, §5, §6

[5] = tested on: Penicillium hirsutum ATCC 16025; test: as above; assay type: cell-based; conditions: 80 mg/L in the oil phase, YCG broth, 24 hours
[6] = tested on: Aspergillus restrictus CECT 20807; test: as above; assay type: cell-based; conditions: YCG broth
S. aureus ATCC®29213™ [7] = conditions: cited from earlier work
MRSA ATCC BAA 2312 = test: Droplets with labeled anti-PBP2a antibody, BSA +/- cefoxitin: growth and labeling; assay type: cell-based, Staphylococcus aureus; conditions: 3 h at 37° C.
Procedure: In another experiment, an anti-PBP2a antibody (Biosource clone M0071933) that recognizes PBP2a indicative of the resistance against methicillin in Staphylococcus aureus (SA) was labeled using Kit Lynx LNK174PETR (Abd Serotec). […] After incubation at 37° C. for 3 hours, the samples were read using the ZOE™ Fluorescent Cell Imager (Bio-Rad Laboratories). The tables below show growth (visible) and labeling (fluorescence) obtained for the tested strains of MSSA and MRSA.

S. aureus ATCC®43300™ [8] = test: Antimicrobial susceptibility testing in water-in-oil droplets, strain with or without induction of resistance; conditions: for MIC: Staphylococcus aureus
Procedure: They comprised Escherichia coli (ATCC®25922™), Staphylococcus aureus (ATCC®29212™), Enterococcus faecalis (ATCC®29212™) and Candida albicans (ATCC®24433™). […] This strain is known to carry an heterogeneous resistance phenotype was also used with or without induction with cephalosporins.
Each strain was stored as −80° C. frozen stock. Except when indicated, after overnight cultures in Trypto-casein-soy broth (TCS; Bio-Rad, Marnes 1a Coquette, France), all bacterial strains were started from the same adjusted turbidity which was equivalent to 1:100 of a 0.5 McFarland in TCS. For the Candida albicans, the starting turbidity was equivalent to a 1:10 of a 0.1 McFarland.
Droplets were prepared according to the manufacturer instructions (Bio-Rad) using QX200™ Droplet Generation Oil for EvaGreen (+surfactant) with the mixing parameters adjusted for sample volume and approximate number of microorganisms. Turbidity adjusted cultures were diluted in aqueous-phase reagents with a known concentration of antibiotic or antifungal agents in a 1:1 ratio of TCS culture to aqueous phase reagents (v/v, 10 μL/10 μL).
As soon as the droplets were prepared, the cartridges, protected by an adhesive film, were directly incubated at 37° C. (at 30° C. for the C. albicans).
After 4 and 6 hours of incubation, droplets were pipetted and introduced into cell counting slides (Bio-Rad). The microorganisms were then observed in the droplets using a microscope (objective 100× or 400×). The approximate counts of droplets carrying microorganisms as their growth inside the droplets were reported.
The minimal inhibitory concentration (MIC) was determined as the lowest concentration of an antimicrobial agent that prevents visible growth of a microorganism (i.e. a total absence of bacteria or a total absence of fungal growth observable in droplets using the microscope).

S. aureus ATCC®29213™ [9] = test: Antimicrobial susceptibility testing in water-in-oil droplets, microscope reading; assay type: cell-based, Staphylococcus aureus; conditions: for Growth in droplets (observation in words): 2 mg/L
Procedure: (at 30° C. for the C. albicans).

S. aureus ATCC®43300™ [10] = conditions: cited from earlier work
bacteria or yeast = test: Turbidity of a culture over time in the presence and absence of PI; assay type: cell-based; conditions: presence vs absence of PI
Procedure: FIGS. 13A and 13B are a sample of SA+PI without FOX after 6 h of incubation. FIGS. 14A-14C are SA+PI+0.25 mg/L FOX after 6 h of incubation. FIGS. 15A-15C are SA+PI+0.5 mg/L FOX after 6 h of incubation. FIGS. 16A-16C are SA+PI+4 mg/L FOX after 6 h of incubation. PI is excluded from viable cells and penetrates the cell membranes of dead or dying cells. […] Intercalating agents are considered toxic for cell growth because they react with DNA, blocking the replication of the cells.

## Nc1c(Cl)cc([N+](=O)[O-])cc1Cl [dicloran, 2,6-dichloro-4-nitroaniline]
[1]
  Mold growth outside the aqueous phase: inhibition of mold growth outside the aqueous phase
[2]; 40 mg/L in the oil phase
  Mold growth outside the aqueous phase: inhibition of mold growth outside the aqueous phase
[2]; 60 mg/L in the oil phase
  Mold growth outside the aqueous phase: inhibition of mold growth outside the aqueous phase
[3]; 60 mg/L in the oil phase, YCG broth, 24 hours
  Mold growth outside the aqueous phase: inhibition of mold growth outside the aqueous phase
[3]; 80 mg/L in the oil phase, 5,6 carboxyfluorescein diacetate (25 mg/L) in the broth
  Mold growth outside the aqueous phase: inhibition of Erotium rubrum CECT 20807 growth outside the aqueous phase
[3]; 80 mg/L in the oil phase, YCG broth, 48 hours
  Mold growth outside the aqueous phase: inhibition of mold growth outside the aqueous phase
[4]
  Hyphae spreading and mold growth outside the droplet: the hyphae spreading was inhibited and mold growth was confined within the droplet
[5]
  Mold growth outside the aqueous phase: inhibition of mold growth outside the aqueous phase
[6]; 80 mg/L in the oil phase, 24 hours
  Mold growth outside the aqueous phase: inhibition of mold growth outside the aqueous phase
[6]; 100 mg/L in the oil phase, 48 hours
  Mold growth outside the aqueous phase: inhibition of mold growth outside the aqueous phase

## CO[C@@]1(NC(=O)Cc2cccs2)C(=O)N2C(C(=O)O)=C(COC(N)=O)CS[C@@H]21 [Cefoxitin]
S. aureus ATCC®29213™ [7]
  Expected MIC (CLSI): 1 to 4 µg/mL
MRSA ATCC BAA 2312; BSA 0 + FOX 2 mg/L
  Growth (visible): Growth +<
MRSA ATCC BAA 2312; BSA 2.5% + FOX 2 mg/L
  Growth (visible): Growth +>
S. aureus ATCC®43300™ [8]; 4 mg/L, 4 h w/o induction
  Growth in droplets (observation in words): No growth
S. aureus ATCC®43300™ [8]; 4 mg/L, 4 h with induction
  Growth in droplets (observation in words): Limited growth
S. aureus ATCC®43300™ [8]; 4 mg/L, 6 h w/o induction
  Growth in droplets (observation in words): Limited growth (few
S. aureus ATCC®43300™ [8]; 4 mg/L, 6 h with induction
  Growth in droplets (observation in words): Limited growth
S. aureus ATCC®43300™ [8]; 8 mg/L, 4 h with induction
  Growth in droplets (observation in words): Limited growth in few
S. aureus ATCC®43300™ [8]; 8 mg/L, 6 h w/o induction
  Growth in droplets (observation in words): No growth
S. aureus ATCC®43300™ [8]; 8 mg/L, 6 h with induction
  Growth in droplets (observation in words): 1 droplet with cells
S. aureus ATCC®43300™ [8]; 16 mg/L, 4 h with induction
  Growth in droplets (observation in words): Very limited growth
S. aureus ATCC®43300™ [8]; 16 mg/L, 6 h with induction
  Growth in droplets (observation in words): No growth
S. aureus ATCC®43300™ [8]; 32 mg/L, 4 h with induction
  Growth in droplets (observation in words): No growth
S. aureus ATCC®43300™ [8]; ATCC43300, read-out: Observed MIC, using non induced strain
  MIC: 2 to 4 µg/mL (≈ 4.68 to 9.36 µM)
S. aureus ATCC®43300™ [8]; ATCC43300, read-out: Observed MIC, with induced strain
  MIC: 16 to 32 µg/mL (≈ 37.4 to 74.9 µM)
S. aureus ATCC®29213™ [9]; 0.5 mg/L, reading time 4 h
  Growth in % of droplets: 20-30% of droplets
S. aureus ATCC®29213™ [9]; 1 mg/L, reading time 4 h
  Growth in % of droplets: ~20% of droplets
S. aureus ATCC®29213™ [9]; 1 mg/L, reading time 6 h
  Growth in % of droplets: Growth in <50% of
S. aureus ATCC®29213™ [9]; reading time 4 h
  Growth in droplets (observation in words): No growth
S. aureus ATCC®29213™ [9]; reading time 6 h
  Growth in droplets (observation in words): No growth
S. aureus ATCC®29213™ [9]; Staphylococcus aureus, ATCC29213, droplets at 37° C., read after 4 and 6 h, read-out: Observed MIC
  MIC: 2 µg/mL (≈ 4.68 µM)
S. aureus ATCC®43300™ [10]
  Expected MIC (JCM): 16 to 32 µg/mL

## CC[N+](C)(CC)CCC[n+]1c(-c2ccccc2)c2cc(N)ccc2c2ccc(N)cc21.[I-].[I-] [PI, propidium iodide]
Bacteria or yeast
  Impact on growth of bacteria or yeast: only a limited impact
